Results published in publication PMC8318231, “Rate-of-Kill (RoK) assays to triage large compound sets for Chagas disease drug discovery: Application to GSK Chagas Box” (PLoS Neglected Tropical Diseases, 2021).

What was measured:
TcCYP51 = settings: formerly reported; cited from earlier work
[1] = test system: T. cruzi Tulahuen trypomastigotes; assay: T. cruzi trypomastigote assay (Cell Titer-Glo viability, ATP luminescence); type: cell-based, Trypanosoma cruzi; settings: for Trypomastigotes pIC50 48 hours: 48 hours incubation; for Trypomastigotes pIC50 48 hours / Trypomastigotes pIC50 72 hours: pIC50 = -log10 IC50 in molar units; for Trypomastigotes pIC50 72 hours: 72 hours incubation; for 72 pIC50 (trypomastigotes, raw data of Fig 1D): 72 hours, plotted values, censored values given without sign; for 48 pIC50 / 72 pIC50: trypomastigote assay; for 48 pIC50: 48 h; for 72 pIC50: 72 h
Procedure, shortened: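 Tulahuen trypomastigotes from infected LLC-MK2 culture supernatants (days 5–8) plated at 5 × 10^4 per well in DMEM/2% FBS with compound at 5 μM single-shot final or in dose response. Viability by CellTiter-Glo ATP luminescence after 10 min at room temperature, normalised to no-cell (100%) and DMSO (0%) controls.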

[2] = test system: T. cruzi intracellular amastigotes in H9c2 cells; assay: Rate-of-Kill (RoK) high-content imaging assay, amastigotes per cell (AM/CELL) and curve descriptors; type: cell-based, Trypanosoma cruzi; design: key to ME_24h / ME_48h / ME_72h: % reduction in parasite burden (cidal response); t50pct_MCC50 / t50pct_Cmax: unit not given here; settings: for ME_24h: 24h; for ME_48h: 48h; for ME_72h: 72h; for tlag_Cmax / t50pct_Cmax / t50%_Cmax: at Cmax; for ME_24h (%): maximum effect at 24 h; for ME_24h (%) / ME_48h (%) / ME_72h (%): RoK assay; for ME_48h (%): maximum effect at 48 h; for ME_72h (%): maximum effect at 72 h; for ME 24h (maximum effect at 24 hours, intracellular amastigotes): maximum percentage of parasite burden reduction reached by any concentration
Procedure, shortened: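 H9c2 cardiomyocytes infected with T. cruzi trypomastigotes (MOI 8, 18 h), then compounds tested at 5 μM single shot or 11-point 1/3 dilution from 50 μM. DRAQ5-stained nuclei imaged over a time course. Amastigotes per cell normalised to infected cells at 4 h (0%) and non-infected cells (100%).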

| SMILES | CYP51 pIC50 (TcCYP51) | Trypomastigotes pIC50 48 hours [1] | Trypomastigotes pIC50 72 hours [1] | 72 pIC50 (trypomastigotes, raw data of Fig 1D) [1] | 48 pIC50 ([1]; figure 1A) | 72 pIC50 ([1]; figure 1A) | ME_24h ([2]; figure 5) | ME_48h ([2]; figure 5) | ME_72h ([2]; figure 5) | MCCE ([2]; RoK curve descriptor) [µM] | tlag_Cmax [2] [h] | t50pct_Cmax ([2]; figure 5) | tlag_Cmax ([2]; figure 5) | t50pct_MCC50 ([2]; at MCC50, figure 5) | tlag_MCC50 ([2]; at MCC50, figure 5) | MCCE ([2]; figure 5) | ME_24h (%) [2] [%] | ME_48h (%) [2] [%] | ME_72h (%) [2] [%] | ME 24h (maximum effect at 24 hours, intracellular amastigotes) [2] [%] | also measured |
| --- | --- | --- | --- | --- | --- | --- | --- | --- | --- | --- | --- | --- | --- | --- | --- | --- | --- | --- | --- | --- | --- |
| O=C(NC1C(=O)N(c2ccccc2)C1c1cccnc1)c1ccc(Cl)s1 (stereo not shown) [TCMDC-143324] | 6.7 | < 4.3 | < 4.3 | < 4.3 | < 4.3 | < 4.3 | -26.8888 | -112.607 | -10.0757 | 0.07 | 72.0 | 72 | 72 | 72 | 72 | 0.06859 | -26.9 | -112.6 | -10.1 | -26.8888 | 72 pIC50 ([1]; figure 1B): < 4.3; AM/CELL NORM ([2]; Time 4, sheet figure 4 A): -16.6269; AM/CELL NORM ([2]; Time 24, sheet figure 4 A): -26.8888; AM/CELL NORM ([2]; Time 48, sheet figure 4 A): -112.607; AM/CELL NORM ([2]; Time 72, sheet figure 4 A): -155.468; MCC50 ([2]; figure 5): 50 µM |
| Cc1nc2nc(C)c(Cc3ccc(C(C)C)cc3)c(=O)n2[nH]1 [TCMDC-143087] | < 4 | 5.8 | 5.9 |  |  |  | 30.2741 | 57.5973 | 64.9642 | 0.3 | 4.0 | 60 | 4 | 72 | 38 | 0.3099 | 30.3 | 57.6 | 65.0 | 41.0116 | activity in trypomastigotes assay (in words) ([1]; 48 and 72 hours): active versus trypomastigotes at 48 and 72 hours with the same potency; ME (maximum effect) in RoK assay (in words) [2]: positive value of ME from 24 hours; tlag (in words) [2]: low values of tlag; ME / cidal effect at 72 hours ([2]; 72 hours): ≤ 65%; MCC50 ([2]; RoK curve descriptor): 0.6 µM; AM/CELL NORM ([2]; Time 4, sheet figure 4 A): 2.257; AM/CELL NORM ([2]; Time 24, sheet figure 4 A): 40.319; AM/CELL NORM ([2]; Time 48, sheet figure 4 A): 64.8982; AM/CELL NORM ([2]; Time 72, sheet figure 4 A): 80.3688; t50%_Cmax [2]: 60.0 h; t50%_MCC50 ([2]; at MCC50): 72.0 h; tlag_MCC50 ([2]; at MCC50): 4.0 h; MCC50 ([2]; figure 5, in µM): 25.3086 |
| O=C(O)/C=C\C(=O)O.O=C(c1ccc(OCCCc2cnc[nH]2)cc1)C1CC1 [TCMDC-143632] | 7.3 | < 4.3 | < 4.3 | < 4.3 | < 4.3 | < 4.3 | -9.2427 | 8.208 | 46.1088 | 5.6 | 24.0 | 72 | 24 | 72 | 72 | 5.556 | -9.2 | 8.2 | 46.1 | -9.2427 | 72 pIC50 ([1]; figure 1B): < 4.3; AM/CELL NORM ([2]; Time 4, sheet figure 4 A): 10.5519; AM/CELL NORM ([2]; Time 24, sheet figure 4 A): -53.2211; AM/CELL NORM ([2]; Time 48, sheet figure 4 A): -4.213; AM/CELL NORM ([2]; Time 72, sheet figure 4 A): 38.8877; MCC50 ([2]; figure 5): 50 µM |
| Fc1ccc(OC2CC(NCc3cccc4cn[nH]c34)C2)cc1C(F)(F)F (stereo not shown) [TCMDC-143455] | 6.9 | 5 | 5 | 5 | 5 | 5 | 25.577 | 44.8387 | 61.893 | 0.2 | 24.0 | 72 | 24 | 72 | 24 | 0.2058 | 25.6 | 44.8 | 61.9 | 107.523 | 72 pIC50 ([1]; figure 1B): 5; MCC50 ([2]; RoK curve descriptor): 5.6 µM; AM/CELL NORM ([2]; Time 4, figure 4 A): 30.3216; AM/CELL NORM ([2]; Time 24, figure 4 A): 25.577; AM/CELL NORM ([2]; Time 48, figure 4 A): 44.8387; AM/CELL NORM ([2]; Time 72, figure 4 A): 61.893; t50%_Cmax [2]: 72.0 h; t50%_MCC50 ([2]; at MCC50): 72.0 h; tlag_MCC50 ([2]; at MCC50): 24.0 h; MCC50 ([2]; figure 5, in µM): 5.556 |
| NC(=O)c1ccccc1Nc1nc(NC2CCCCC2)nc2[nH]ccc12 [TCMDC-143314] | < 4 | 5.1 | 4.4 |  |  |  | -235.508 | -846.189 | -1441.39 | 0.6 | 72.0 | 72 | 72 | 72 | 72 | 0.6173 | -235.5 | -846.2 | -1441.4 | 91.926 | AM/CELL NORM ([2]; Time 4, figure 4 A): -0.353; AM/CELL NORM ([2]; Time 24, figure 4 A): -235.508; AM/CELL NORM ([2]; Time 48, figure 4 A): -898.709; AM/CELL NORM ([2]; Time 72, figure 4 A): -1946.1; MCC50 ([2]; figure 5): 50 µM |
| COc1ccc(NS(=O)(=O)c2cccc(NC(=O)c3cc(F)cc(F)c3)c2)cc1 [TCMDC-143108] | < 4 | 5 | 5.6 |  |  |  | 74.207 | 103.042 | 85.1326 | 1.9 | 4.0 | 24 | 4 | 48 | 14 | 1.852 | 74.2 | 103.0 | 85.1 | 70.2211 | MCC50 ([2]; RoK curve descriptor): 5.6 µM; AM/CELL NORM ([2]; Time 4, figure 4 A): 3.957; AM/CELL NORM ([2]; Time 24, figure 4 A): 27.4841; AM/CELL NORM ([2]; Time 48, figure 4 A): 38.7704; AM/CELL NORM ([2]; Time 72, figure 4 A): 44.9716; t50%_Cmax [2]: 24.0 h; t50%_MCC50 ([2]; at MCC50): 48.0 h; tlag_MCC50 ([2]; at MCC50): 14.0 h; MCC50 ([2]; figure 5, in µM): 5.556 |
